Our source for the IC50 values is US9108983B2, “Pyrrole compounds, a process for their preparation and pharmaceutical compositions containing them” (LES LABORATOIRES SERVIER, priority 2013, dated 2015).

Assay [1] has as its target Bcl-2 protein (histag-Bcl-2, UniProtKB P10415) (Homo sapiens (Human), UniProt P10415). Kind of assay: Inhibition of Bcl-2 by the fluorescence polarisation technique. The class given is binding. Particulars: incubation for 2 hours, read-out: IC50 (nM) Bcl-2 FP. Here is the method: The fluorescence polarisation tests were carried out on microplates (384 wells). The Bcl-2 protein, labelled (histag-Bcl-2 such that Bcl-2 corresponds to the UniProtKB® primary accession number: P10415), at a final concentration of 2.50×10^−8 M, is mixed with a fluorescent peptide (Fluorescein-[…]), at a final concentration of 1.00×10^−8 M in a buffer solution (Hepes 10 mM, NaCl 150 mM, Tween20 0.05%, pH 7.4), in the presence or absence of increasing concentrations of test compounds. After incubation for 2 hours, the fluorescence polarisation is measured.

Assay [2] concerns RS4;11 leukaemia tumour line. In words: In vitro cytotoxicity (Microculture Tetrazolium Assay). Format: cell-based. Particulars: RS4;11 cells, exposed for 48 hours, cell viability, read-out: IC50 (nM) MTT RS4;11. Here is the method: The cytotoxicity studies were carried out on the RS4;11 leukaemia tumour line.
The cells are distributed onto microplates and exposed to the test compounds for 48 hours.
The cell viability is then quantified by a colorimetric assay, the Microculture Tetrazolium Assay (Cancer Res., 1987, 47, 939-942).

Where a name gives a salt, the structure may show the parent alone. Read-outs that look alike come from different tables or passages of the source.

Sequence of Bcl-2 protein (P10415 whole entry): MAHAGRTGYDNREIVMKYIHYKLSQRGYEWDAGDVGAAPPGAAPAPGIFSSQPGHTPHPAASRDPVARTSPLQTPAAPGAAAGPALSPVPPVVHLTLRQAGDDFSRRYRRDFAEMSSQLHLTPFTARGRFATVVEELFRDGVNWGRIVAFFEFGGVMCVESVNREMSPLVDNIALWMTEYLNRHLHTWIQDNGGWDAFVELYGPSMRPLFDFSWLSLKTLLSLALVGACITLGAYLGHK

For the molecule `CN1CCN(C[C@@H]2Cc3ccccc3CN2C(=O)c2ccc(Cl)cc2-c2cc(C(=O)N(c3ccc(O)cc3)c3ccc4c(ccn4C)c3)cn2C)CC1` [Example 5, 5-(5-Chloro-2-{[(3S)-3-[(4-methylpiperazin-1-yl)methyl]-3,4-dihydroisoquinolin-2(1H)-yl]carbonyl}phenyl)-N-(4-hydroxyphenyl)-1-methyl-N-(1-methyl-1H-indol-5-yl)-1H-pyrrole-3-carboxamide hydrochloride], the half-maximal inhibitory concentration (IC50) in assay [1] was determined as 21.2 nM; in assay [2] (Homo sapiens, RS4-11, 48 h) it was 44.8 nM.
The like results for `CCn1cc(C(=O)N(c2ccc(O)cc2)c2ccc3c(ccn3C)c2)cc1-c1cc(Cl)ccc1C(=O)N1Cc2ccccc2C[C@H]1CN1CCN(C)CC1` [Example 6, 5-(5-Chloro-2-{[(3S)-3-[(4-methylpiperazin-1-yl)methyl]-3,4-dihydroisoquinolin-2(1H)-yl]carbonyl}phenyl)-1-ethyl-N-(4-hydroxyphenyl)-N-(1-methyl-1H-indol-5-yl)-1H-pyrrole-3-carboxamide] were, in that order, 25.2 nM and 69 nM.
With `CN1CCN(C[C@@H]2Cc3ccccc3CN2C(=O)c2ccc(Cl)cc2-c2cc(C(=O)N(c3ccc(O)cc3)c3ccc4c(ccn4C)c3)cn2C2CC2)CC1` [Example 7, 5-(5-Chloro-2-{[(3S)-3-[(4-methylpiperazin-1-yl)methyl]-3,4-dihydroisoquinolin-2(1H)-yl]carbonyl}phenyl)-1-cyclopropyl-N-(4-hydroxyphenyl)-N-(1-methyl-1H-indol-5-yl)-1H-pyrrole-3-carboxamide], the IC50 in assay [1] came out at 25.6 nM; in assay [2] (Homo sapiens, RS4-11, 48 h) it was 90.6 nM.
As to `CN1CCN(C[C@@H]2Cc3ccccc3CN2C(=O)c2cc3c(cc2-c2cc(C(=O)N(c4ccc(O)cc4)c4ccc5c(ccn5C)c4)cn2C)OCO3)CC1` [Example 9, N-(4-Hydroxyphenyl)-1-methyl-N-(1-methyl-1H-indol-5-yl)-5-(6-{[(3S)-3-[(4-methylpiperazin-1-yl)methyl]-3,4-dihydroisoquinolin-2(1H)-yl]carbonyl}-1,3-benzodioxol-5-yl)-1H-pyrrole-3-carboxamide hydrochloride], the IC50 turned out to be 22.4 nM in assay [1] and 87.5 nM in assay [2] (Homo sapiens, RS4-11, 48 h).
As for `Cc1c(C(=O)N(c2ccccc2)c2ccc(O)cc2)cc(-c2cc(F)ccc2C(=O)N2Cc3ccccc3C[C@H]2CN2CCOCC2)n1C` [Example 10, 5-(5-Fluoro-2-{[(3S)-3-(morpholin-4-ylmethyl)-3,4-dihydroisoquinolin-2(1H)-yl]carbonyl}phenyl)-N-(4-hydroxyphenyl)-1,2-dimethyl-N-phenyl-1H-pyrrole-3-carboxamide hydrochloride], the IC50 came to 16.2 nM in assay [1] and 205 nM in assay [2] (Homo sapiens, RS4-11, 48 h).
As to `Cc1c(C(=O)N(c2ccccc2)c2ccc(O)cc2)cc(-c2cc(F)ccc2C(=O)N2Cc3ccccc3C[C@H]2CN2CCOCC2)n1CCCO` [Example 11, 5-(5-Fluoro-2-{[(3S)-3-(morpholin-4-ylmethyl)-3,4-dihydroisoquinolin-2(1H)-yl]carbonyl}phenyl)-N-(4-hydroxyphenyl)-1-(3-hydroxypropyl)-2-methyl-N-phenyl-1H-pyrrole-3-carboxamide hydrochloride], the IC50 in assay [1] worked out at 14.2 nM; in assay [2] (Homo sapiens, RS4-11, 48 h) it was 202 nM.
Turning to `Cc1c(C(=O)N(c2ccc(O)cc2)c2ccc3c(cnn3C)c2)cc(-c2cc(F)ccc2C(=O)N2Cc3ccccc3C[C@H]2CN2CCOCC2)n1C` [Example 12, 5-(5-Fluoro-2-{[(3S)-3-(morpholin-4-ylmethyl)-3,4-dihydroisoquinolin-2(1H)-yl]carbonyl}phenyl)-N-(4-hydroxyphenyl)-1,2-dimethyl-N-(1-methyl-1H-indazol-5-yl)-1H-pyrrole-3-carboxamide hydrochloride], the IC50 turned out to be 5.5 nM in assay [1] and 39.6 nM in assay [2] (Homo sapiens, RS4-11, 48 h).
Turning to `Cc1ccc(N(C(=O)c2cc(-c3cc4c(cc3C(=O)N3Cc5ccccc5C[C@H]3CN3CCOCC3)OCO4)n(C)c2C)c2ccc(O)cc2)cc1F` [Example 13, N-(3-Fluoro-4-methylphenyl)-N-(4-hydroxyphenyl)-1,2-dimethyl-5-(6-{[(3S)-3-(morpholin-4-ylmethyl)-3,4-dihydroisoquinolin-2(1H)-yl]carbonyl}-1,3-benzodioxol-5-yl)-1H-pyrrole-3-carboxamide hydrochloride], the IC50 came to 4.4 nM in assay [1] and 19.8 nM in assay [2] (Homo sapiens, RS4-11, 48 h).
`Cc1c(C(=O)N(c2ccc(O)cc2)c2ccc3c(cnn3C)c2)cc(-c2cc3c(cc2C(=O)N2Cc4ccccc4C[C@H]2CN2CCOCC2)OCO3)n1C` [Example 14, N-(4-Hydroxyphenyl)-1,2-dlmethyl-N-(1-methyl-1H-indazol-5-yl)-5-(6-{[(3S)-3-(morpholil-4-ylmethyl)-3,4-dihydroisoquinolin-2(1H)-yl]carbonyl}-1,3-benzodioxol-5-yl)-1H-pyrrole-3-carboxamide hydrochloride]: the IC50 was found to be 3.7 nM in assay [1] and 8.23 nM in assay [2].
With `Cc1c(C(=O)N(c2ccccc2)c2ccc(O)cc2)cc(-c2cc3c(cc2C(=O)N2Cc4ccccc4C[C@H]2CN2CCOCC2)OCO3)n1C` [Example 15, N-(4-Hydroxyphenyl)-1,2-dimethyl-5-(6-{[(3S)-3-(morpholin-4-ylmethyl)-3,4-dihydroisoquinoin-2(1H)-yl]carbny}-1,3-benzodioxo-5-yl)-N-pheny-1H-pyrrole-3-carboxamide hydrochloride], the IC50 in assay [1] came out at 11.1 nM; in assay [2], 69.4 nM.
Turning to `Cc1c(C(=O)N(c2ccc(O)cc2)c2cccc(F)c2)cc(-c2cc3c(cc2C(=O)N2Cc4ccccc4C[C@H]2CN2CCOCC2)OCO3)n1C` [Example 16, N-(3-Fluorophenyl)-N-(4-hydroxyphenyl)-1,2-dimethyl-5-(6-{[(3S)-3-(morpholin-4-ylmethyl)-3,4-dihydroisoquinolin-2(1H)-yl]carbonyl}-1,3-benzodioxol-5-yl)-1H-pyrrole-3-carboxamide hydrochloride], the IC50 stood at 12.6 nM in assay [1] and 22.7 nM in assay [2] (Homo sapiens, RS4-11, 48 h).
Regarding `Cc1c(C(=O)N(c2ccccc2)c2ccc(O)cc2)cc(-c2cc(Cl)ccc2C(=O)N2Cc3ccccc3C[C@H]2CN2CCOCC2)n1C` [Example 17, 5-(5-Chloro-2-{[(3S)-3-(morpholin-4-ylmethyl)-3,4-dihydroisoquinolin-2(1H)-yl]carbonyl}phenyl)-N-(4-hydroxyphenyl)-1,2-dimethyl-N-phenyl-1H-pyrrole-3-carboxamide hydrochloride], the IC50 in assay [1] is 8 nM; in assay [2] (Homo sapiens, RS4-11, 48 h), 75.2 nM.
For the molecule `Cc1c(C(=O)N(c2ccccc2)c2ccc(O)cc2)cc(-c2cc3c(cc2C(=O)N2Cc4ccccc4C[C@H]2CCN2CCOCC2)OCO3)n1CCO` [Example 18, 1-(2-Hydroxyethyl)-N-(4-hydroxyphenyl)-2-methyl-5-(6-{[(3S)-3-[2-(morpholin-4-yl)ethyl]-3,4-dihydroisoquinolin-2(1H)-yl]carbonyl}-1,3-benzodioxol-5-yl)-N-phenyl-1H-pyrrole-3-carboxamide hydrochloride], the 50% inhibitory concentration (IC50) in assay [1] stood at 3.9 nM; in assay [2] (Homo sapiens, RS4-11, 48 h), 27.6 nM.
Turning to `COc1ccc(C(=O)N2Cc3ccccc3C[C@H]2CN2CCOCC2)c(-c2cc(C(=O)N(c3ccccc3)c3ccc(O)cc3)c(C)n2C)c1` [Example 19, N-(4-Hydroxyphenyl)-5-(5-methoxy-2-{[(3S)-3-(morpholin-4-ylmethyl)-3,4-dihydroisoquinolin-2(1H)-yl]carbonyl}phenyl)-1,2-dimethyl-N-phenyl-. H-pyrrole-3-carboxamide hydrochloride], the figures for the half-maximal inhibitory concentration (IC50) in assay [1] and in assay [2] were 6 nM and 65.5 nM, respectively.
Turning to `COc1ccc(C(=O)N2Cc3ccccc3C[C@H]2C)c(-c2cc(C(=O)N(c3ccncc3)c3ccc(O)cc3)c(C)n2C)c1` [Example 20, N-(4-Hydroxyphenyl)-5-(5-methoxy-2-{[(3R)-3-methyl-3,4-dihydroisoquinolin-2(1H)-yl]carbonyl}phenyl)-1,2-dimethyl-N-(pyridin-4-yl)-1H-pyrrole-3-carboxamide hydrochloride], the IC50 was 4.9 nM in assay [1] and 164 nM in assay [2] (Homo sapiens, RS4-11, 48 h).
On to `Cc1c(C(=O)N(c2ccc(O)cc2)c2cnn(C)c2)cc(-c2cc3c(cc2C(=O)N2Cc4ccccc4C[C@H]2CN2CCOCC2)OCCO3)n1C` [Example 21, N-(4-Hydroxyphenyl)-1,2-dimethyl-N-(1-methyl-1H-pyrazol-4-yl)-5-(7-{[(3S)-3-(morpholin-4-ylmethyl)-3,4-dihydroisoquinolin-2(1H)-yl]carbonyl}-2,3-dihydro-1,4-benzodioxin-6-yl)-1H-pyrrole-3-carboxamide hydrochloride], for which the IC50 in assay [1] was 4.7 nM; in assay [2] (Homo sapiens, RS4-11, 48 h), 79.9 nM.
In the case of `Cc1c(C(=O)N(c2ccccc2)c2ccc(O)cc2)cc(-c2cc3c(cc2C(=O)N2Cc4ccccc4C[C@H]2CN2CCOCC2)OCCO3)n1C` [Example 22, N-(4-Hydroxyphenyl)-1,2-dimethyl-5-(7-{[(3S)-3-(morpholin-4-ylmethyl)-3,4-dihydroisoquinolin-2(1H)-yl]carbonyl}-2,3-dihydro-1,4-benzodioxin-6-yl)-N-phenyl-1H-pyrrole-3-carboxamide hydrochloride], the IC50 in assay [1] is 6.6 nM; in assay [2] (Homo sapiens, RS4-11, 48 h), 45.7 nM.
Turning to `Cc1c(C(=O)N(c2ccc(O)cc2)c2cnn(C)c2)cc(-c2cc3c(cc2C(=O)N2Cc4ccccc4C[C@H]2C)OCO3)n1CCO` [Example 23, 1-(2-Hydroxyethyl)-N-(4-hydroxyphenyl)-2-methyl-5-(6-{[(3R)-3-methyl-3,4-dihydroisoquinolin-2(1H)-yl]carbonyl}-1,3-benzodioxol-5-yl)-N-(1-methyl-1H-pyrazol-4-yl)-1H-pyrrole-3-carboxamide], the IC50 was determined as 3.6 nM in assay [1] and 25.4 nM in assay [2] (Homo sapiens, RS4-11, 48 h).
